What all share (assay): NCI tumour cell line growth inhibition, 48 h
Test [1] concerns IGROV1 ovarian.
Test [2] concerns SN12C renal.
For test [3], the system named is U251 CNS.
For test [4], the system named is MOLT-4 leukemia.
The test system of test [5] is HOP-62 NSCLC.
Test [6] concerns SK-OV-3 ovarian.
The test system of test [7] is SF-295 CNS.
Test [8] relates to HL-60(TB) leukemia.
Test [9] concerns DU-145 prostate.
For test [10], the system named is BT-549 breast.

Each structure is given as a SMILES string.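 All cell lines were grown in 96-well plates and treated with compound for 48 hours. GI50 marks 50% less growth. The concentration for full growth arrest is given as TGI.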

As for `CCCOC(=O)CCn1c(SC)nc2[nH]cc(-c3ccccc3)c2c1=O`, the GI50 was 13.5 µM in [1]; 20.1 µM in [2]; 12.8 µM in [3]; 1.16 µM in [4]; 5.49 µM in test [5]; 38.3 µM in test [6]. The GI50 was 11.1 µM in [7], 1.77 µM in [8] and 27.8 µM in [9]. The TGI was 49.6 µM in test [1]; above 100 µM in [2]; 87.4 µM in [3]; 15.1 µM in test [4]; 88.2 µM in [5]; above 100 µM in test [6]. Besides, the figures for the TGI in test [7], in [8] and in test [9] were 52.4 µM, 23.2 µM and above 100 µM, respectively.
In the case of `O=C(CN(/C=C/C(=O)C(F)(F)F)c1ccccc1)c1ccc(Cl)c(Cl)c1`, the GI50 is 5.76 µM in [1]; 15.1 µM in [2]; 14.8 µM in test [3]; 12.7 µM in test [4]; 28.3 µM in test [5]; 21.1 µM in test [6]. The figures for the GI50 in [10], in test [7] and in [9] were 10.9 µM, 12.4 µM and 13 µM, respectively. For the same compound, the TGI in [1] was 19.7 µM; in test [2] it was 28.3 µM; in test [3], 28.1 µM; in test [4] it was 32.4 µM; in test [5] it was above 100 µM; in test [6], 40.1 µM. In addition, the values for the TGI in test [10], in test [7] and in test [9] were 29.5 µM, 27.5 µM and 30.6 µM, respectively.
For `Cc1ccc(Sc2ccc(C)cc2[N+](=O)[O-])c([N+](=O)[O-])c1`, the TGI in [1], in [2], in test [3], in test [4], in test [5] and in [6] was above 100 µM each time. The TGI in [7] and in test [8] was above 100 µM in each case.
On to `Cc1c(Cl)cccc1NC1=C(Cl)C(=O)N(Cc2ccccc2)C1=O`, for which the GI50 in test [1] was 19.7 µM; in [2], 11.4 µM; in test [3], 6.24 µM; in test [4], 10.1 µM; in test [5], 7.65 µM; in test [6], 14.7 µM. Moreover, the GI50 is 3.01 µM in test [7] and 3.67 µM in test [9]. For the same compound, the TGI in [1] stood at 56.5 µM; in test [2], 24.1 µM; in test [3] it was 20.1 µM; in test [4] it was 43 µM; in [5], 20.4 µM; in [6], 30.2 µM. The TGI in test [7] amounted to 14.4 µM; in test [9] it was 17.1 µM.
As for `CCCOc1nc(SCCC)nc2c1cnn2-c1ccccc1`, the GI50 in [1], in [2], in test [3], in test [4], in test [5] and in test [6] was above 100 µM in each case. Also, the GI50 in test [7] was 31.8 µM; in test [8] it was 38 µM; in test [9], above 100 µM. Besides, the TGI in [1], in [2], in test [3], in [4], in test [5] and in test [6] was above 100 µM throughout. Also, the TGI in test [7], in [8] and in test [9] was above 100 µM in each case.
Regarding `Nc1n[nH]c2cccc(C#Cc3cccc(C(=O)Nc4cc(CN5CCOCC5)cc(C(F)(F)F)c4)c3)c12`, the GI50 in [1] was 3.23 µM; in test [2], 3.71 µM; in [3] it was 5.57 µM; in test [4], 2.76 µM; in test [5] it was 4.5 µM; in test [6], 15.5 µM. Besides, the GI50 in test [10] is 4.33 µM; in test [7], 3.46 µM; in [9] it was 9.82 µM. Besides, the TGI in [1] is 11.7 µM; in test [2], 16.4 µM; in [3], 19.2 µM; in test [4] it was 13.3 µM; in test [5], 18.1 µM; in [6], 34.8 µM. The figures for the TGI in test [10], in [7] and in test [9] were 18.8 µM, 14.2 µM and 23.8 µM, respectively.
As to `COC(=O)C1=C(OC(=O)c2ccc(Cl)cc2)C(C(=O)OC)[C@@]2(O)[C@@H](C(=O)OC)C(c3ccccc3Cl)C[C@@H]1[C@@H]2C(=O)OC` (stereo partly specified), the GI50 in test [2] is 4.22 µM; in test [3], 3.4 µM; in test [4], 3.54 µM; in test [5], 15.9 µM; in test [6] it was 19.8 µM; in [10], 5.47 µM. Besides, the GI50 in test [9] was 7.46 µM. Besides, the TGI in test [2] is 31 µM; in [3], 27 µM; in [4], 34.6 µM; in test [5], above 100 µM; in test [6], 91.9 µM; in [10], above 100 µM. The TGI in test [9] was above 100 µM.
Turning to `N=C(N)c1ccc(COc2ccccc2OCc2ccc(C(=N)N)cc2)cc1`, the GI50 is 61.6 µM in test [1]; 6.6 µM in test [2]; 25.6 µM in test [3]; 49.6 µM in [4]; 18.9 µM in [5]; above 100 µM in test [6]. Moreover, the GI50 in [10] is 34.8 µM; in [7], 24.1 µM; in [9] it was 18.7 µM. The TGI in test [1] is above 100 µM; in test [2], 89.3 µM; in test [3], 65.4 µM; in [4], above 100 µM; in test [5], 48.9 µM; in test [6], above 100 µM. In addition, the TGI in test [10] was 76.7 µM; in test [7], 82.4 µM; in [9], 45.8 µM.
In the case of `CCOC(=O)C1=C(Nc2cccc3ccccc23)OC/C1=N\NC(=O)c1ccccc1O`, the TGI in test [1] is 29.8 µM; in test [2], above 88 µM; in test [3], above 100 µM; in test [4], 53.5 µM; in test [5], above 100 µM; in test [6], above 100 µM. Besides, the TGI in [7] was above 100 µM; in test [8], 37.8 µM.
